Source: ChEMBL document CHEMBL2384944, “Metabolically Stable tert-Butyl Replacement” (ACS Med Chem Lett, 2013)

Key:
[1] = Half life in human liver microsomes at 1 uM in presence of NADPH
[2] = Half life in rat liver microsomes at 1 uM in presence of NADPH
[3] = target: CYP3A4/5 (Homo sapiens, UniProt P08684+P20815); assay: Reversible inhibition of CYP3A4/5 in human liver microsomes using midazolam as substrate preincubated for 30 mins followed by NADPH and substrate addition measured after 10 mins; assay type: ADME, Microsome; details: probe midazolam
[4] = Volume of distribution at steady state in Sprague-Dawley rat at <= 1 mg/kg, iv; assay type: ADME, organism-based; set-up: dose 1 mg/kg, route intravenous; details: in vivo, read-out: Vdss
[5] = Half life in Sprague-Dawley rat at <= 1 mg/kg, iv; assay type: ADME, organism-based; set-up: dose 1 mg/kg, route intravenous; details: in vivo
[6] = Clearance in Sprague-Dawley rat at <= 1 mg/kg, iv; assay type: ADME, organism-based; set-up: dose 1 mg/kg, route intravenous; details: in vivo
[7] = Lipophilicity, log P of the compound; assay type: physicochemical; details: octanol/water

| SMILES | half-life at 1 µM ([1]; microsomes) [h] | half-life at 1 µM ([2]; microsomes) [h] | IC50 at 10 min [3] [µM] | half-life at 1 µM ([1]; liver microsomes) [h] | half-life at 1 µM ([2]; liver microsomes) [h] | further results |
| --- | --- | --- | --- | --- | --- | --- |
| CC(C)(C(=O)O)c1ccc(-c2ccc(C#N)cn2)cc1 | 4.57 | 2.25 |  |  |  |  |
| CC(C)(C)c1ccc(-c2ccc(F)cn2)cc1 | 0.45 | 0.4 | > 50 |  |  |  |
| CC(C)(C#N)c1ccc(-c2ccc(C#N)cn2)cc1 | 2.03 | 1.17 |  |  |  |  |
| CC(C)(C)c1ccc(C(=O)Nc2ccc(C(F)(F)F)nc2)cc1 |  |  | > 50 | 0.683 | 0.417 | Vd [4]: 5.4 L/kg; half-life [5]: 0.2 h; clearance [6]: 352 mL/min/kg |
| CC(C)(C)c1ccc(-c2ccnc(C#N)c2)cc1 |  |  |  | 0.417 | 0.133 |  |
| CC1(c2ccc(-c3ccc(C#N)cn3)cc2)COC1 | 0.633 | 0.617 | > 50 |  |  | Vd [4]: 1.3 L/kg; half-life [5]: 0.4 h; clearance [6]: 28 mL/min/kg |
| CC(C)(C)NC(=O)[C@H]1CC[C@H]2[C@@H]3CC[C@H]4NC(=O)C=C[C@]4(C)[C@H]3CC[C@]12C [FINASTERIDE] | 1.05 |  |  |  |  |  |
| CC(C)(CO)c1ccc(-c2ccc(C#N)cn2)cc1 | 3.37 | 2.08 |  |  |  |  |
| C[C@]12C=CC(=O)N[C@@H]1CC[C@@H]1[C@@H]2CC[C@]2(C)[C@@H](C(=O)NC3(C(F)(F)F)CC3)CC[C@@H]12 |  |  |  | 1.9 |  |  |
| CC(C)(C)c1ccc(C(=O)Nc2ccc(C#N)nc2)cc1 |  |  |  | 0.85 | 0.4 |  |
| CC(C)(C)c1ccc(-c2ccc(C#N)cn2)cc1 | 0.85 | 0.5 | > 50 |  |  | logP [7]: 4.2; Vd [4]: 2.5 L/kg; half-life [5]: 2.3 h; clearance [6]: 20 mL/min/kg |
| CC(c1ccc(-c2ccc(C#N)cn2)cc1)C(F)(F)F (centres undefined) | 1.1 | 0.417 |  |  |  |  |
| CC(C)c1ccc(-c2ccc(C#N)cn2)cc1 | 0.15 | 0.117 | > 50 |  |  |  |

Second part, led by results:

| half-life at 1 µM ([1]; microsomes) [h] | half-life at 1 µM ([2]; microsomes) [h] | IC50 at 10 min [3] [µM] | half-life at 1 µM ([1]; liver microsomes) [h] | half-life at 1 µM ([2]; liver microsomes) [h] | SMILES | further results |
| --- | --- | --- | --- | --- | --- | --- |
|  |  | > 50 | > 6.75 | 3.28 | O=C(Nc1ccc(C(F)(F)F)nc1)c1ccc(C2(C(F)(F)F)CC2)cc1 | Vd [4]: 6.2 L/kg; half-life [5]: 3.4 h; clearance [6]: 25 mL/min/kg |
|  |  |  | 1.47 | 1.63 | N#Cc1ccc(NC(=O)c2ccc(C3(C(F)(F)F)CC3)cc2)cn1 |  |
| > 6.75 | 0.667 |  |  |  | O=C(Nc1ccc(C(F)(F)F)cc1)c1ccc(C2(C(F)(F)F)CC2)cc1 |  |
|  |  |  | 1.42 | 0.2 | CC(C)(C)c1ccc(C(=O)Nc2ccc(C#N)cc2)cc1 |  |
|  |  |  | 1.83 | 2.15 | N#Cc1ccc(-c2ccc(C3(C(F)(F)F)CC3)nc2)nc1 |  |
|  |  |  | 1.15 | 1.25 | N#Cc1cc(-c2ccc(C3(C(F)(F)F)CC3)cc2)ccn1 |  |
|  |  |  | 0.483 | 0.2 | CC(C)(C)c1ccc(C(=O)Nc2ccc(C(F)(F)F)cc2)cc1 |  |
|  |  | > 50 | 2.5 | > 6.67 | N#Cc1ccc(-c2ccc(C3(C(F)(F)F)CC3)cc2)nc1 | logP [7]: 4; Vd [4]: 3.4 L/kg; half-life [5]: 9.1 h; clearance [6]: 4.6 mL/min/kg |
|  |  | > 50 | 1.07 | > 6.75 | Fc1ccc(-c2ccc(C3(C(F)(F)F)CC3)cc2)nc1 |  |
| > 6.75 | 0.783 |  |  |  | N#Cc1ccc(NC(=O)c2ccc(C3(C(F)(F)F)CC3)cc2)cc1 |  |
